{"source": "patent US9907762B2", "about": "“Stabilized mutant opsin proteins” (University of Washington, priority 2003, dated 2018)", "key": {"wild-type opsin [1]": {"target": "T1, wild-type opsin (Bos taurus, UniProt P02699)", "T1 construct": "expressed in transfected cells", "assay": "Photosensitivity studies", "format": "biochemical"}, "wild-type opsin [2]": {"target": "T1, wild-type opsin", "assay": "Immunocytochemistry, localization in HEK293 cells", "format": "cell-based", "conditions": "immunofluorescence", "procedure": "HEK293 cells expressing wild-type rhodopsin or P23H-opsin under a tetracycline-inducible promoter were cultured in Dulbecco's modified Eagle's medium (Invitrogen). The cells were attached to glass bottom microwell dishes (MatTek Corp.) with Cell-Tak (Becton Dickinson Labware). Expression of opsin or P23H-opsin was induced by the addition of 1 μg/ml tetracycline as recommended by the manufacturer's protocol (Invitrogen). The cells were treated with 50 μM 11-cis-7-ring retinal 2 hours after induction. The cells were harvested after 24 hours and fixed with 4% paraformaldehyde (Fisher) in PBS (136 mM NaCl, 11.4 mM sodium phosphate, pH 7.4) for 10 minutes and washed by PBS. To block nonspecific labeling, the cells were incubated in 1.5% normal goat serum (Vector Lab., Inc.) in PBST (136 mM NaCl, 11.4 mM sodium phosphate, 0.1% Triton X-100, pH 7.4) for 15 minutes at room temperature. The cells were incubated overnight at 4° C. in purified 1D4 antibody diluted with PBST. The sections were rinsed in PBST and incubated with indocarbocyanine (Cy3)-conjugated goat anti-mouse IgG (Jackson ImmunoResearch Lab., Inc.) and Hoechst 33342 dye (Molecular Probes). […] For confocal imaging, the cells were analyzed on a Zeiss LSM510 laser scanning microscope (Carl Zeiss, Inc.)."}, "wild-type opsin [3]": {"target": "T1, wild-type opsin", "assay": "Thermostability of pigments", "format": "biochemical", "conditions": "incubation at either 4° C. or 37° C."}, "P23H-opsin [4]": {"target": "T2, P23H-opsin (Bos taurus, UniProt P02699, P23H)", "T2 construct": "expressed in transfected cells", "assay": "Pigment formation, retinals added to cell culture medium during opsin biosynthesis", "format": "cell-based", "conditions": "for pigment formation / rescue of folding of P23H-opsin: retinal 50 μM added during biosynthesis; for absorbance max of the pigment formed with P23H-opsin: retinal added during biosynthesis, immunoaffinity purified"}, "wild-type opsin [5]": {"target": "T1, wild-type opsin", "assay": "Pigment regeneration, retinals added to harvested cells/cell membranes", "format": "biochemical", "conditions": "retinal 50 μM added to harvested cells, 45 minutes at 4° C.", "excerpt": "(§1) For the construction and selection of tetracycline-inducible opsin cell lines, an Invitrogen T-REx™ system was used. Briefly, nucleic acids encoding wild-type opsin and the P23H mutant were excised as EcoRI-NotI fragments from pMT4 and then cloned into the EcoRI-NotI site within the polylinker of pcDNA4. Using opsin-specific forward and reverse primers, the entire gene was sequenced for verification. These plasmids were then separately transfected by calcium-phosphate precipitation into T-REx™-293 cells that already stably expressed the tetracycline repressor; these cells were routinely grown under blasticidin selection. After transfection, zeocin was added to the culture medium, and surviving colonies of cells were isolated and subsequently expanded into larger 6-well plates. Each of these clones was exposed to tetracycline, and 48 hours after induction, the cells were harvested and solubilized with 1% DM. Separately, uninduced cells were also solubilized. The samples were run on SDS-PAGE and immunoblotted with the monoclonal antibody 1D4. Cell lines were chosen on the basis of production of the least amount of opsin (i.e., nondetectable opsin levels on immunoblots) in the absence of tetracycline and moderate amounts of opsin in the presence of the drug. HEK293 cells were grown in Dulbecco's modified Eagle's medium containing high glucose (Invitrogen) at 37° C. in the presence of 5.0% CO2. In all of the studies, the cells were harvested after 48 hours of induction with tetracycline (1 μg/ml).\n(§2) The cells were washed three times with PBS, harvested, and incubated with different analogs of 11-cis-retinal (50 μM) for 45 minutes at 4° C. The cells were then lysed with 1.0% n-dodecyl-maltoside (DM) (Anatrace) in the presence of protease inhibitors (complete protease inhibitor mixture tablets; Roche Molecular Biochemicals) and centrifuged at 36,000 rpm in a Beckman ultracentrifuge for 30 minutes at 4° C. The supernatant was incubated with 1D4-coupled CNBr-activated Sepharose 4B (Pharmacia Corp.) beads overnight. The beads were then washed three times with PBS containing 0.1% DM. Bound pigments were eluted off the beads using 0.1 mM synthetic peptide (last 9 amino acid residues of the C terminus of rhodopsin) in 0.1% DM. In studies when retinoids (50 μM) were added during biosynthesis, a Me2SO solution of retinoids (10 μl of 100 mM) was added directly to the cell culture medium after 2 and 24 hours of induction. The cells were harvested at 48 hours and lysed with 1.0% DM. Pigment was purified by immunoaffinity chromatography. The UV-visible spectra of the eluted pigment samples were then recorded on a Perkin Elmer Lambda 800 UV-visible spectrophotometer in the range of 250-650 nm."}, "P23H-opsin [6]": {"target": "T2, P23H-opsin", "assay": "Pigment regeneration, retinals added to harvested cells/cell membranes", "format": "biochemical", "conditions": "retinal added after the cells were harvested", "excerpt": "as §1, §2"}, "wild-type opsin [7]": {"target": "T1, wild-type opsin", "assay": "Pigment formation, retinals added to cell culture medium during opsin biosynthesis", "format": "cell-based", "conditions": "for pigment formation with wild-type opsin: retinal 50 μM added during biosynthesis; for absorbance max of the pigment formed with wild-type opsin: retinal added during biosynthesis, immunoaffinity purified", "excerpt": "as §1, §2"}, "wild-type opsin [8]": {"target": "T1, wild-type opsin", "assay": "Retinoid analysis of the bound chromophore (HPLC, spectrophotometry)", "format": "binding", "procedure": "(§3) The mixture was kept at room temperature for 30 min, and then 400 μl of MeOH and 400 μl of hexane were added. The mixture was shaken on a vortex for 5 minutes and centrifuged at 14,000 rpm to separate layers. The hexane layer was collected. Another 400 μl of hexane was added to the aqueous layer, and extraction was repeated. Combined hexane layers were dried down and redissolved in 120 μl of hexane, and 100 μl fractions were analyzed by normal phase HPLC as previously described."}, "P23H-opsin [9]": {"target": "T2, P23H-opsin", "assay": "Retinoid analysis of the bound chromophore (HPLC, spectrophotometry)", "format": "binding", "procedure": "as §3"}, "P23H-opsin [10]": {"target": "T2, P23H-opsin", "assay": "Glycosylation status by immunoblotting", "format": "cell-based", "conditions": "retinal added during biosynthesis, immunoblot", "procedure": "The samples were loaded on 10% SDS-polyacrylamide gels and transferred to Immobilon-NC membrane (Millipore) according to established protocols. The membranes were blocked with blocking buffer (Licor) for 1 hour and incubated at room temperature with 1D4 antibody (1:1000) for 1 hour. […] The membranes were then washed with PBS containing Tween 20 and scanned using an Odyssey Infrared imager (Licor).\nThe samples were incubated at 37° C. for 16 hours and then loaded onto a 10% polyacrylamide gel. The immunoblots were developed as described above."}, "P23H-opsin [11]": {"target": "T2, P23H-opsin", "assay": "Immunocytochemistry, localization in HEK293 cells", "format": "cell-based", "conditions": "immunofluorescence"}, "[12]": {"conditions": "cell membranes, after photobleaching"}, "[13]": {"conditions": "mixture of the four 7-ring retinal isomers added during biosynthesis"}}, "note": "“Also recorded” adds a separate entry of the source.", "data": [{"molecule": "7-rhodopsin: rhodopsin (wild-type opsin) regenerated with 11-cis-7-ring retinal", "values": [{"measurement": "stability to light in cell membranes", "setting": "wild-type opsin [1]; HEK293 cell membranes, 20 minutes light", "value": "not bleached by light"}, {"measurement": "stability to light, purified in detergent", "setting": "wild-type opsin [1]; purified pigment in detergent", "value": "stable to light"}, {"measurement": "cellular localization of wild-type opsin pigment", "setting": "wild-type opsin [2]", "value": "found predominantly at the plasma membrane"}, {"measurement": "temperature stability of purified pigment", "setting": "wild-type opsin [3]", "value": "no change in the amount of chromophore"}]}, {"molecule": "11-cis-6-ring retinal", "values": [{"measurement": "pigment formation / rescue of folding of P23H-opsin", "setting": "P23H-opsin [4]", "value": "No significant pigment; also recorded: lack of activity"}, {"measurement": "regeneration of wild-type rhodopsin in cell membranes", "setting": "wild-type opsin [5]", "value": "regeneration"}, {"measurement": "pigment formation with P23H-opsin in cell membranes", "setting": "P23H-opsin [6]", "value": "only a small amount of pigment was formed"}, {"measurement": "pigment formation with wild-type opsin", "setting": "wild-type opsin [7]", "value": "recombined with wild-type opsin"}]}, {"molecule": "11-cis-7-ring retinal", "values": [{"measurement": "substitution of bound chromophore by added 11-cis-retinal", "setting": "wild-type opsin [8]; [12]", "value": "did not lead to its substitution"}, {"measurement": "isomer bound by wild-type opsin", "setting": "wild-type opsin [8]; [13]", "value": "selectively bound"}, {"measurement": "substitution of bound chromophore by added 11-cis-retinal", "setting": "P23H-opsin [9]; [12]", "value": "did not lead to its substitution"}, {"measurement": "isomer bound by P23H-opsin", "setting": "P23H-opsin [9]; [13]", "value": "selectively bound"}, {"measurement": "pigment formation / rescue of folding of P23H-opsin", "setting": "P23H-opsin [4]", "value": "significant amounts of pigment"}, {"measurement": "absorbance max of the pigment formed with P23H-opsin", "setting": "P23H-opsin [4]", "value": "approximately 490±3 nm"}, {"measurement": "fraction of P23H-opsin folded to form pigment (rescued)", "setting": "P23H-opsin [4]; selective elution of folded form, 10 mM phosphate, pH 6.0, spectra and immunoblots", "value": "approximately 80%"}, {"measurement": "glycosylation of P23H-opsin", "setting": "P23H-opsin [10]", "value": "Golgi-associated glycosylation pattern similar to the wild-type protein"}, {"measurement": "regeneration of wild-type rhodopsin in cell membranes", "setting": "wild-type opsin [5]", "value": "regeneration"}, {"measurement": "pigment formation with P23H-opsin in cell membranes", "setting": "P23H-opsin [6]", "value": "only a small amount of pigment was formed"}, {"measurement": "pigment formation with wild-type opsin", "setting": "wild-type opsin [7]", "value": "recombined with wild-type opsin"}, {"measurement": "absorbance max of the pigment formed with wild-type opsin", "setting": "wild-type opsin [7]", "value": "approximately 500±3 nm"}]}, {"molecule": "11-cis-9-demethyl-7-ring retinal", "values": [{"measurement": "pigment formation / rescue of folding of P23H-opsin", "setting": "P23H-opsin [4]", "value": "ineffective in pigment formation"}, {"measurement": "pigment formation / rescue of folding of P23H-opsin", "setting": "P23H-opsin [4]; listed as 11-cis-9-demethyl-ring retinal", "value": "lack of activity"}]}, {"molecule": "CC1=C(/C=C/C(C)=C\\C=C\\C(C)=C\\C=O)C(C)(C)CCC1", "note": "[9-cis-retinal]", "values": [{"measurement": "cellular localization of P23H-opsin", "setting": "P23H-opsin [11]", "value": "promoted transport of P23H-opsin to the cell surface"}]}, {"molecule": "CC1=C(/C=C/C(C)=C/C=C/C(C)=C/C=O)C(C)(C)CCC1", "note": "[11-cis-retinal]", "values": [{"measurement": "pigment formation / rescue of folding of P23H-opsin", "setting": "P23H-opsin [4]", "value": "induce the in vivo folding and stabilization of P23H-opsin"}, {"measurement": "absorbance max of the pigment formed with P23H-opsin", "setting": "P23H-opsin [4]", "value": 492, "unit": "nm"}, {"measurement": "glycosylation of P23H-opsin", "setting": "P23H-opsin [10]", "value": "acquired a mature state of glycosylation"}, {"measurement": "regeneration of wild-type rhodopsin in cell membranes", "setting": "wild-type opsin [5]", "value": "regeneration"}, {"measurement": "pigment formation with P23H-opsin in cell membranes", "setting": "P23H-opsin [6]", "value": "only a small amount of pigment was formed"}, {"measurement": "pigment formation with wild-type opsin", "setting": "wild-type opsin [7]", "value": "regeneration"}, {"measurement": "absorbance max of the pigment formed with wild-type opsin", "setting": "wild-type opsin [7]", "value": 499, "unit": "nm"}]}]}
